This note sets out measurements from patent US20030008015A1, “Polymer controlled delivery of a therapeutic agent” (priority 2000, published 2003).

The subject of assay [1] is MBT-2 cells. As to the kind of experiment: MBT-2 cell proliferation assay (MTS tetrazolium). Conditions: 3 days, medium with free or extracted paclitaxel replaced every day, 2.9×10^−6 M to 2.9×10^−9 M or serial dilutions. The assay is classed as cell-based. On the procedure: MBT-2 cells in culture flasks were maintained in Dulbecco's Modified Eagles Medium, 10% fetal calf serum, 100 μg/mL penicillin and 100 μg/mL streptomycin at 37° C. in an atmosphere of 5% CO2.
For proliferation assay experiments, cells were harvested with Trypsin-EDTA and seeded (3,000 cells) on an uncoated 96-well plate (Falcon). A standard curve was established by using paclitaxel solutions that were prepared by first dissolving paclitaxel in dimethylsulfoxide (DMSO), then dilution with culture medium. Final concentration of DMSO was 0.75%. After 1 day, the culture medium was replaced by medium containing free paclitaxel, with concentrations ranging from 2.9×10^−6 M to 2.9×10^−9 M or paclitaxel extracted from a paclitaxel-loaded microparticle, with serial dilutions. […] After 3 days, cell proliferation was measured by a tetrazolium-based assay (CellTiter96, Promega). […] Formazan production, related to enzymatic cell activity, was determined at 490 rim (Biorad plate reader Model 550). Results are expressed as a percentage of growth inhibition compared to cells incubated in the same conditions with medium. Paclitaxel encapsulation was then calculated from the standard curve of growth inhibition of free paxlitaxel.
Paclitaxel-loaded microparticle activity on MBT-2 cells was also determined with no extraction process. […] After 3 days, cell proliferation was measured as described above.

The test system of assay [2] is MBT-2 cells. The experiment in a line: Observation of MBT-2 cells after incubation with free paclitaxel or particles (confocal microscope). The following applies: 4.4×10^−5 M paclitaxel, observed on day 4. The assay is classed as cell-based. On the procedure: Cells were also observed after incubation with free paclitaxel or particles. Cells were seeded on chambered cover-glasses (Labtek). After 1 day, free paclitaxel (4.4×10^−5 M) or particles (same concentration of paclitaxel) were added. Medium was replaced every day with free paclitaxel or medium only in the case of the particles. On day 4, cells were washed, fixed during 30 minutes with paraformaldehyde (2%) then observed with a confocal microscope (Zweiss Axiovert 100) for localization of particles.

The test system of assay [3] is BBN-induced bladder cancer. As to the kind of experiment: Antitumor activity on BBN-induced bladder cancer: survival and body weight. The assay is classed as in vivo. The following applies: BBN mice. On the procedure:
(§1) Bladder cancer was induced in female Balb-c mice (8 weeks old) with the carcinogen BBN that was given as a 0.05% solution in the drinking water during 4 weeks. Mice were then treated intravesically (50 μL) with free paclitaxel ([…]) in Tween 80 5%), loaded particles (100 μg) or unloaded particle suspensions. Schedule of administration was the following: mice received the treatment every week during 4 weeks or every other week during 4 weeks. Body weights were recorded every week for all the animals. One week after the last instillation, all the animals were killed. Bladders were removed, weighed and fixed in paraformaldehyde 10% overnight then embedded in paraffin and sectioned.
The anti-cancer activity of paclitaxel encapsulated in microparticles of the invention was assayed against bladder cancer following intravesical instillation. Experimental bladder cancer was induced in female Balb/c mice with BBN, a carcinogenic compound that was added to the drinking water 4 weeks before starting the treatment we compared the same dose (100 μg) of free paclitaxel, encapsulated paclitaxel and non-loaded particles as a control (12 animals per group). Mice received the treatment either once a week or every other week for 4 weeks and number of surviving mice as well as body weight of mice were recorded every week. […]

For assay [4], the system named is BBN-induced bladder cancer. As to the kind of experiment: Histologic evaluation and BrdU proliferation index of bladder sections of BBN-mice. The assay is classed as in vivo. The following applies: for Dysplasia (No) / HGTCC (No): number of animals; for CIS (No): number of animals with carcinoma in situ. On the procedure: as §1
One week after the last instillation, all the animals were sacrificed and histologic evaluation was performed on haematoxilin and eosin stained sections (table 1). […] In the group treated with free paclitaxel once a week or every other week, CS was found in 5 cases (71°/b) and 7 cases (78%), respectively. On the contrary, no animal of 7 (0%) in the group treated with encapsulated paclitaxel once a week had CIS. Only 2 animals of 9 (22%) treated with particles every other week had CIS. In the groups treated with the paclitaxel, the urothelium was focally or predominantly denuded.
Proliferation index was calculated on these sections using the BrdU incroporation into proliferative cells. BrdU staining was localized in the nucleus with a fine granularity. Nuclei were considered BrdU positve if any nuclear staining was observed. The control group presented a proliferative index of 30% compared to the proliferative index of 10% in a normal urothelium. In all other groups, there was a high proliferative index, from about 35% in groups receiving encapsulated paclitaxel to 65% in groups receiving free paclitaxel.

The mark [5] stands for this setting: 100 μg every other week for 4 weeks.

Turning to `CC(=O)O[C@H]1C(=O)[C@@]2(C)[C@H]([C@H](OC(=O)c3ccccc3)[C@]3(O)C[C@H](OC(=O)[C@H](O)[C@@H](NC(=O)c4ccccc4)c4ccccc4)C(C)=C1C3(C)C)[C@]1(OC(C)=O)CO[C@@H]1C[C@@H]2O` [Free paclitaxel, Paclitaxel], the MBT-2 cell proliferation entry in assay [1] is listed as “decreased with an increased concentration”. For the same compound, the “shape of the cells” value in assay [2] is reported as “modification of the shape of the cells was observed”. In addition, the survival rate in assay [3] (100 μg intravesically every other week for 4 weeks) and in assay [3] (100 μg intravesically once a week for 4 weeks) was 82% each time. Further, the “CIS (%)” value in assay [4] (setting [5]) is given as “(78%)”; in assay [4] (100 μg every other week for 4 weeks, listed as free paclitaxel), 78%; in assay [4] (100 μg once a week for 4 weeks) it was “(71%)”; in assay [4] (100 μg once a week for 4 weeks, listed as free paclitaxel), 71%. Also, the “Proliferative Index (%)” value in assay [4] (100 μg every other week for 4 weeks, BrdU) was 61%; in assay [4] (100 μg once a week for 4 weeks, BrdU), 65%. Further, the figures for the “Dysplasia (No)” value in assay [4] (setting [5]) and in assay [4] (100 μg once a week for 4 weeks) were 1 and 0, respectively. The “HGTCC (No)” value in assay [4] (setting [5]) and in assay [4] (100 μg once a week for 4 weeks) was 1 throughout. Moreover, the “CIS (No)” value was 7 in assay [4] (setting [5]) and 5 in assay [4] (100 μg once a week for 4 weeks). Moreover, in assay [4] (100 μg, BBN induced bladder cancer), the “effect on the incidence of CIS” value is given as “almost no effect”. For the same compound, the proliferative index in assay [4] (BrdU, groups without stated schedule) worked out at 65%.

`CC(=O)O[C@H]1C(=O)[C@@]2(C)[C@H]([C@H](OC(=O)c3ccccc3)[C@]3(O)C[C@H](OC(=O)[C@H](O)[C@@H](NC(=O)c4ccccc4)c4ccccc4)C(C)=C1C3(C)C)[C@]1(OC(C)=O)CO[C@@H]1C[C@@H]2O` [paclitaxel extracted]: the MBT-2 cell proliferation result in assay [1] is given as “the same trend was observed”.
